# US11400079B2, “Antibacterial monobactams” (University of Notre Dame du Lac, priority 2017, dated 2022)
# Structures can show the parent of a compound that is named as a salt. Where two headings read alike, the source gives them in different places.
# Experiments:
# [1] = system: panel of Gram-negative and Gram-positive bacteria; assay: Antibacterial activity against a panel of bacteria; assay type: cell-based
# Method: (§1) General Methods. All solvents and reagents were obtained from commercial sources and used without further purification unless otherwise stated. General methods of purification of compounds involved the use column chromatography with silica gel (230-400 mesh) purchased from Silicycle, Quebec City, Canada. The reactions were monitored by TLC on precoated Merck 60 F254 silica gel plates and visualized using UV light (254 nm).
# (§2) Antibacterial assays were performed using iron depleted media as described previously (J. Med. Chem. 2017, 60, 4577).
# [2] = system: Gram-negative bacteria; assay: Antibacterial activity against tested Gram-negative strains (summary in words); assay type: cell-based; conditions: tested strains of Gram-negative bacteria
# Method: as §1, §2
# [3] = system: A. baumannii ATCC BAA 1793; assay: MIC antibacterial assay (iron depleted media); assay type: cell-based, Acinetobacter baumannii; conditions: Acinetobacter baumannii, BAA1793
# Method: as §1, §2
# [4] = system: A. baumannii ARC 5079; assay: MIC antibacterial assay (iron depleted media); assay type: cell-based, Acinetobacter baumannii; conditions: Acinetobacter baumannii, ARC5079
# Method: as §1, §2
# [5] = system: A.baumannii ISR14-005; assay: MIC antibacterial assay (iron depleted media); assay type: cell-based, Acinetobacter baumannii; conditions: Acinetobacter baumannii, ISR14005
# Method: as §1, §2
# [6] = system: A. baumannii ATCC 17978-PNT-320; assay: MIC antibacterial assay (iron depleted media); assay type: cell-based, Acinetobacter baumannii; conditions: Acinetobacter baumannii, ATCC17978
# Method: as §1, §2
# [7] = system: A. baumannii ATCC BAA 1797; assay: MIC antibacterial assay (iron depleted media); assay type: cell-based; conditions: Acinetobacter baumannii, BAA1797
# Method: as §1, §2
# [8] = system: A. baumannii ATCC17978-PNT-165; assay: MIC antibacterial assay (iron depleted media); assay type: cell-based; conditions: Acinetobacter baumannii
# Method: as §1, §2
# [9] = system: Proteus mirabilis X235; assay: MIC antibacterial assay (iron depleted media); assay type: cell-based
# Method: as §1, §2
# [10] = system: P. aeruginosa 01; assay: MIC antibacterial assay (iron depleted media); assay type: cell-based; conditions: Pseudomonas aeruginosa
# Method: as §1, §2
# [11] = system: Enterobacter aerogenes X816; assay: MIC antibacterial assay (iron depleted media); assay type: cell-based; conditions: Klebsiella aerogenes
# Method: as §1, §2
# [12] = system: Citrobacter freuendii ATCC 29063; assay: MIC antibacterial assay (iron depleted media); assay type: cell-based; conditions: ATCC29063
# Method: as §1, §2
# [13] = system: E. coli DCO; assay: MIC antibacterial assay (iron depleted media); assay type: cell-based; conditions: Escherichia coli
# Method: as §1, §2
# [14] = system: P. aeruginosa KW799/wt; assay: MIC antibacterial assay (iron depleted media); assay type: cell-based; conditions: Pseudomonas aeruginosa
# Method: as §1, §2
# [15] = system: P. aeruginosa ARC 3506; assay: MIC antibacterial assay (iron depleted media); assay type: cell-based; conditions: Pseudomonas aeruginosa, ARC3506
# Method: as §1, §2
# [16] = system: B. dolosa AU0018; assay: MIC antibacterial assay (iron depleted media); assay type: cell-based; conditions: Burkholderia dolosa
# Method: as §1, §2
# [17] = system: P. aeruginosa ISR-14-003; assay: MIC antibacterial assay (iron depleted media); assay type: cell-based; conditions: Pseudomonas aeruginosa, ISR14003
# Method: as §1, §2
# [18] = system: S. aureus SG 511; assay: MIC antibacterial assay (iron depleted media); assay type: cell-based; conditions: Staphylococcus aureus, SG511
# Method: as §1, §2
# [19] = system: Salmonella typhimurium ATCC13311; assay: MIC antibacterial assay (iron depleted media); assay type: cell-based; conditions: Salmonella enterica
# Method: as §1, §2
# [20] = system: P. aeruginosa ISR-14-004; assay: MIC antibacterial assay (iron depleted media); assay type: cell-based; conditions: Pseudomonas aeruginosa, ISR14004
# Method: as §1, §2
# [21] = system: A. baumannii ATCC 17961; assay: MIC antibacterial assay (iron depleted media); assay type: cell-based; conditions: Acinetobacter baumannii, ATCC17961
# Method: as §1, §2
# [22] = system: strong β-lactamase producing strains of P. aeruginosa (ARC 3502 and ARC 3506); assay: Antibacterial activity, alone and in combination with tazobactam; assay type: cell-based; conditions: co-administration with tazobactam
# Method: as §1, §2
# [23] = system: A. baumannii ATCC BAA 1800; assay: MIC antibacterial assay (iron depleted media); assay type: cell-based, Acinetobacter baumannii; conditions: Acinetobacter baumannii, BAA1800, MH2 broth with 160 μM bipyridyl added
# Method: as §1, §2
# [24] = system: β-lactamase producing strains of A. baumannii; assay: Antibacterial activity in combination with tazobactam; assay type: cell-based, Acinetobacter baumannii; conditions: combinations with tazobactam
# Method: as §1, §2
# [25] = system: P. aeruginosa ARC 3502; assay: MIC antibacterial assay (iron depleted media); assay type: cell-based; conditions: Pseudomonas aeruginosa
# Method: as §1, §2
# [26] = A. baumannii ISR14-005 (clinical isolate), compound alone, MH2 broth with 160 μM bipyridyl added, read-out: MIC
# [27] = A. baumannii ISR14-005 (clinical isolate), in combination with tazobactam, read-out: MIC (+tazo)
# [28] = Proteus mirabilis X235, MH2 broth with 160 μM bipyridyl added, read-out: MIC
# [29] = P. aeruginosa 01, MH2 broth with 160 μM bipyridyl added, read-out: MIC
# [30] = Enterobacter aerogenes X816, MH2 broth with 160 μM bipyridyl added, read-out: MIC
# [31] = Citrobacter freuendii ATCC 29063, MH2 broth with 160 μM bipyridyl added, read-out: MIC
# [32] = E. coli DCO, MH2 broth with 160 μM bipyridyl added, read-out: MIC
# [33] = P. aeruginosa KW799/wt, MH2 broth with 160 μM bipyridyl added, read-out: MIC
# [34] = B. dolosa AU0018, MH2 broth with 160 μM bipyridyl added, read-out: MIC
# [35] = P. aeruginosa ISR-14-003 (clinical isolate), compound alone, MH2 broth with 160 μM bipyridyl added, read-out: MIC
# [36] = P. aeruginosa ISR-14-003 (clinical isolate), in combination with tazobactam, read-out: MIC (+tazo)
# [37] = S. aureus SG 511, MH2 broth with 160 μM bipyridyl added, read-out: MIC
# [38] = Salmonella typhimurium ATCC13311, MH2 broth with 160 μM bipyridyl added, read-out: MIC
# [39] = P. aeruginosa ISR-14-004 (clinical isolate), compound alone, MH2 broth with 160 μM bipyridyl added, read-out: MIC
# [40] = P. aeruginosa ISR-14-004 (clinical isolate), in combination with tazobactam, read-out: MIC (+tazo)
SMILES,antibacterial activity (in words) [2],MIC [6] [µM],MIC [8] [µM],effect of combination with tazobactam on activity (in words) [22],"MIC [5, 26] [µM]","MIC [5, 27] [µM]","MIC [9, 28] [µM]","MIC [10, 29] [µM]","MIC [11, 30] [µM]","MIC [12, 31] [µM]","MIC [13, 32] [µM]","MIC [14, 33] [µM]","MIC [16, 34] [µM]","MIC [17, 35] [µM]","MIC [17, 36] [µM]","MIC [18, 37] [µM]","MIC [19, 38] [µM]","MIC [20, 39] [µM]","MIC [20, 40] [µM]",further results
"COC(=O)CSCC1C(NC(=O)Cc2ccccc2)C(=O)N1S(=O)(=O)[O-].[K+] (centres unmarked) [Compound 24, Potassium 2-(((2-methoxy-2-oxoethyl)thio)methyl)-4-oxo-3-(2-phenylacetamido) azetidine-1-sulfonate]",,,,,,,,,,,,,,,,,,,,antibacterial activity (in words) ([1]; panel of Gram-negative and Gram-positive bacteria): not active; antibacterial activity (MIC) ([1]; tested strains): > 50 µM
"CC(C)(O/N=C(\C(=O)NC1C(=O)N(S(=O)(=O)O)[C@H]1CSCCN)c1cnc(N)s1)C(=O)O (mixture of isomers) [Compound 39, (E)-3-(2-(2-aminothiazol-5-yl)-2-(((2-carboxypropan-2-yl)oxy)imino)acetamido)-2-(((2-ammonioethyl)thio)methyl)-4-oxoazetidine-1-sulfonate, potassium salt]",generally improved activity,> 50,50,no improvement,,,,,,,,,,,,,,,,"MIC [3]: 50 µM; MIC [4]: > 50 µM; MIC [5]: > 50 µM; MIC [7]: 50 µM; MIC ([9]; Proteus mirabilis, X235): 3 µM; MIC [10]; 01: > 50 µM; MIC ([11]; X816): 9.4 µM; MIC ([12]; Citrobacter): 3 µM; MIC [13]: 6 µM; MIC ([14]; KW799/WT): > 50 µM; MIC [15]: > 50 µM; MIC ([16]; AU0018): > 50 µM; MIC [17]: > 50 µM; MIC [18]: > 50 µM; MIC [19]: 4.5 µM; MIC [20]: > 50 µM; MIC [21]: > 50 µM"
"CC(C)(O/N=C(\C(=O)NC1C(=O)N(S(=O)(=O)O)C1CSCCNC(=O)CN(CCCCNC(=O)c1cccc(O)c1O)C(=O)c1cccc(O)c1O)c1cnc(N)s1)C(=O)O (racemic) [Compound 42, (E)-2-(((1-(2-Aminothiazol-5-yl)-2-((2-(8-(2,3-dihydroxybenzoyl)-14-(2,3-dihydroxyphenyl)-6,14-dioxo-2-thia-5,8,13-triazatetradecyl)-4-oxo-1-sulfoazetidin-3-yl)amino)-2-oxoethylidene)amino)oxy)-2-methylpropanoic acid]",remarkably potent,0.4,0.4,most improved activity,> 50,25,< 0.025,0.4,0.075,0.05,< 0.025,0.4,> 50,1.6,1.6,> 50,0.025,6,3,"MIC [23]: 0.1 to 0.4 µM; effect of combination with tazobactam on activity (in words) [24]: most enhancement of activity; MIC ([7]; A. baumannii ATCC BAA 1797, MH2 broth with 160 μM bipyridyl added, read-out: MIC): 0.4 µM; MIC ([25]; ARC3502, compound alone, MH2 broth with 160 μM bipyridyl added, read-out: MIC): > 50 µM; MIC ([25]; ARC3502, in combination with tazobactam, plus some growth at 50, clear between 1.6-50, read-out: MIC (+tazo)): 1.6 µM; MIC ([15]; P. aeruginosa ARC 3506, compound alone, MH2 broth with 160 μM bipyridyl added, read-out: MIC): > 50 µM; MIC ([21]; A. baumannii ATCC 17961, MH2 broth with 160 μM bipyridyl added, read-out: MIC): 0.2 µM"
"C[C@H]1[C@H](NC(=O)/C(=N\OC(C)(C)C(=O)O)c2csc(N)n2)C(=O)N1S(=O)(=O)O [Aztreonam, aztreonam, reference compound]",,50,12.5,minimal effects,> 50,50,0.05,3,0.2,0.1,0.1,1.6,> 50,6,3,> 50,0.1,50,0.4,"MIC ([4]; A. baumannii ARC 5079, compound alone, MH2 broth with 160 μM bipyridyl added, read-out: MIC): 25 to 50 µM"
